Source: ChEMBL document CHEMBL3286346, “Ultrapure ajulemic acid has improved CB2 selectivity with reduced CB1 activity” (Bioorg Med Chem, 2014)
Calls of active or inactive are those of the source. No cut-off for these calls is given here.

Tests used:
Mus musculus [1] = test: Antinociceptive activity in CD1 mouse assessed as increase in paw withdrawal latency at 0.05 to 5 mg/kg, po measured after 90 mins post dose by hot plate test relative to vehicle-treated control; assay type: functional, organism-based
HL-60 [2] = test: Antiinflammatory activity in human HL60 cells assessed as stimulation of PGJ synthesis after 2 hrs by ELISA in presence of CB1 antagonist SR141716; assay type: functional, cell-based
Mus musculus [3] = test: Toxicity in CD1 mouse assessed as hypothermia measured as lowering of core body temperature at 3 to 56 mg/kg, po measured after 90 mins post dose; assay type: organism-based; parameters: dose 3-56 mg/kg, route oral; conditions: in vivo, 1.5 h
HL-60 [4] = test: Antiinflammatory activity in human HL60 cells assessed as stimulation of PGJ synthesis after 2 hrs by ELISA in presence of CB2 antagonist SR144528; assay type: functional, cell-based
Mus musculus [5] = test: Antinociceptive activity in CD1 mouse assessed as increase in paw withdrawal latency at 56 mg/kg, po measured after 90 mins post dose by hot plate test relative to vehicle-treated control; assay type: functional, organism-based; parameters: dose 56 mg/kg
Cannabinoid receptor 2 = Cannabinoid receptor 2 (Homo sapiens, UniProt P34972); test: Displacement of [3H]-CP-55940 from human CB2 receptor expressed in HEK293T cell membranes by scintillation counting; parameters: species or system HEK-293T
Cannabinoid receptor 2, sequence (P34972 whole entry): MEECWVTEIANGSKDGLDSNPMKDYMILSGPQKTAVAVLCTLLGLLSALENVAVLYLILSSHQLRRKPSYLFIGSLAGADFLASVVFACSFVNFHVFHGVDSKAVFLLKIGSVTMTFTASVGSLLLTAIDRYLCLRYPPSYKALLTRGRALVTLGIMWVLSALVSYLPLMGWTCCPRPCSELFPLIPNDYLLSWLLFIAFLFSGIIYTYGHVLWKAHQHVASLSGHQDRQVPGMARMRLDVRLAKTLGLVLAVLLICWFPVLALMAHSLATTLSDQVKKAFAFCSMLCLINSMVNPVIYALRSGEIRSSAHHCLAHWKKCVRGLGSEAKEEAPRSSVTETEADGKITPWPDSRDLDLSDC

Mus musculus [6] = test: Toxicity in CD1 mouse assessed as time immobility on the ring for 5 mins at 30 mg/kg, po measured after 90 mins post dose by ring catalepsy test; assay type: organism-based; parameters: dose 30 mg/kg, route oral; conditions: in vivo
HL-60 [7] = test: Antiinflammatory activity in human HL60 cells assessed as stimulation of PGJ synthesis after 2 hrs by ELISA; assay type: functional, cell-based
HEK-293T = test: Selectivity ratio of Ki for human CB1 receptor expressed in HEK293T cell membranes to human CB2 receptor expressed in HEK293T cell membranes; assay type: cell-based
Cannabinoid receptor 1 = Cannabinoid receptor 1 (Homo sapiens, UniProt P21554); test: biochemical; assay type: cell-based, HEK-293T
Cannabinoid receptor 1, sequence (P21554 whole entry): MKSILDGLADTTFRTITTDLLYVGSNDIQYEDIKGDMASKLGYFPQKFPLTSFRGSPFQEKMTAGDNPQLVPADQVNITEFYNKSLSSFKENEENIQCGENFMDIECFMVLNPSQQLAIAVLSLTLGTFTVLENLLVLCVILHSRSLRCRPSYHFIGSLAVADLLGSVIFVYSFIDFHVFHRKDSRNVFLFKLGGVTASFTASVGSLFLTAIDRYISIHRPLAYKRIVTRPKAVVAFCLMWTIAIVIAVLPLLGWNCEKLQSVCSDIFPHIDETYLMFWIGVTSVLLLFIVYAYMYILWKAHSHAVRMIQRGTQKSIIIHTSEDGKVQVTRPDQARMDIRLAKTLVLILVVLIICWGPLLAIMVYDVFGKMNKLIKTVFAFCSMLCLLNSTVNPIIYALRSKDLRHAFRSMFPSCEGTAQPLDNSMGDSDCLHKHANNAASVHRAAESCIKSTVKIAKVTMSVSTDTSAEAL
Description: Displacement of [3H]-CP-55940 from human CB1 receptor expressed in HEK293T cell membranes by scintillation counting

For `CCCCCCC(C)(C)c1cc(O)c2c(c1)OC(C)(C)[C@@H]1CC=C(C(=O)O)C[C@@H]21`, the Activity (Mus musculus [1]) was “Active”.

`CCCCCCC(C)(C)c1cc(OC(C)=O)c2c(c1)OC(C)(C)[C@@H]1CC=C(C(=O)O)C[C@@H]21` was tested, and the Activity (HL-60 [2]) was “inactive”, the Activity (Mus musculus [3]) was “Non-toxic” and the Activity (HL-60 [4]) was “inactive”. For the same compound, the Activity (Mus musculus [5]) was “inactive”, the Ki (Cannabinoid receptor 2) was 0.051 µM and the Activity (Mus musculus [6]) was “Toxic”. For the same compound, the Activity (HL-60 [7]) was “Active”, the Ratio Ki (HEK-293T) was 12.3 and the Ki (Cannabinoid receptor 1) was 0.628 µM.
